Test [1] has as its target T1, PARS (Mus musculus, UniProt P11103).
T1 construct: endogenous in cells; host or cells: RAW mouse macrophages
Description: PARS activation in peroxynitrite-treated cultured macrophages (whole-cell 3H-NAD+ assay). Format: cell-based. The conditions noted are these: cultured murine macrophages; for inhibition at 0.1 µM / % PARS inhibition at 100 nM: 100 nM; for inhibition at 0.3 µM / % PARS inhibition at 300 nM: 300 nM. How it is done:
Raw mouse macrophages were cultured in DMEM medium with high glucose and supplemented with 10% fetal bovine serum. Cells were used at 80% confluence in 12-well plates. Cells were pretreated with various concentrations (100 nM -1 µM) of an Isoquinoline Derivative for 10 min. Peroxynitrite, a prototypical oxidant which induces DNA single strand breakage, was used to induce PARS activation. Peroxynitrite was diluted in phosphate buffered saline (PBS) (pH 11.0) and added to the cells in a bolus of 50 μl. Cells were then incubated for 20 min. […] After the 20 min incubation, the cells were spun, the medium was aspirated and the cells were resuspended in 0.5 ml assay buffer (56 mM HEPES pH 7.5, 28 mM KCl, 28 mM NaCl, 2 mM MgCl2, 0.01% w/v digitonin and 0.125 μM NAD^+ and 0.5 μCi/ml ^3H-NAD^+). Following an incubation in assay buffer, (10 min at 37° C.), PARS activity was measured as follows: 200 μl ice cold 50% w/v TCA was added and the samples were incubated for 4 hours at 4° C. Samples were then spun (10 min @ 10,000 g) and pellets washed twice with ice cold 5% w/v TCA and solubilized overnight in 250 μl 2% w/v SDS/0.1 N NaOH at 37° C. The contents of the tubes were added to 6.5 ml ScintiSafe Plus scintillation liquid (Fisher Scientific) and radioactivity was determined using a liquid scintillation counter (Wallac, Gaithersburg, Md.).

Test [2] has as its target T1, PARS. Briefly: Cell protection assay, peroxynitrite-treated raw mouse macrophages. In kind it is cell-based. The conditions noted are these: peroxynitrite 750 μM.

SMILES strings stand for the structures.

These results are taken from patent US20050228007A1, “Isoquinoline derivatives and methods of use thereof” (priority 2004, published 2005).

T1 sequence (P11103 whole entry): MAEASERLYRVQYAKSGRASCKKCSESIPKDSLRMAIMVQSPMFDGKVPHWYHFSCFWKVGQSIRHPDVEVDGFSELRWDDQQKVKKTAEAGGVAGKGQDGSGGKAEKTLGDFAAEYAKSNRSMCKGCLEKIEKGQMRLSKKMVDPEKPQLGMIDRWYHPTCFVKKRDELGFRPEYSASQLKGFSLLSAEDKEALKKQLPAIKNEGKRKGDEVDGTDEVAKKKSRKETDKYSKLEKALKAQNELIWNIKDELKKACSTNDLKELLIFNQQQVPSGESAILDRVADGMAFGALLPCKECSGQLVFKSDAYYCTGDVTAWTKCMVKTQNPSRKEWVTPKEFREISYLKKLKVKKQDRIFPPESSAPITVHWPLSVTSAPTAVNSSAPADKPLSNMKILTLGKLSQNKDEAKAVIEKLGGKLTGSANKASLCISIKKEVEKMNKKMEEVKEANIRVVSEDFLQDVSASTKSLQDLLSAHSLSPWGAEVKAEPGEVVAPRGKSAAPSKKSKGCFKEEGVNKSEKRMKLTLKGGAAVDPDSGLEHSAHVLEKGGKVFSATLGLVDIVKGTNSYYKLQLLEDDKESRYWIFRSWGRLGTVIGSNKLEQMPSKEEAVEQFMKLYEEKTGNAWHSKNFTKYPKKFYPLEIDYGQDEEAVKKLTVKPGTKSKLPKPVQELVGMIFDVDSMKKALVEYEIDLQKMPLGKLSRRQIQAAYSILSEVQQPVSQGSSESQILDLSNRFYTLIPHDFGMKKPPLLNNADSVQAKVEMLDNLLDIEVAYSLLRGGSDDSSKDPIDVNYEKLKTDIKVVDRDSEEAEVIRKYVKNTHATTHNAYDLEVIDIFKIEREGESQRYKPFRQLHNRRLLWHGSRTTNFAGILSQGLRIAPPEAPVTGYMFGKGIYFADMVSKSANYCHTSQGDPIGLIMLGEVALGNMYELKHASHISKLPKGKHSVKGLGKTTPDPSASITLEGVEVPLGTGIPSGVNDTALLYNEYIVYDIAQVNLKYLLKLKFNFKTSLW

A word on the inhibition: it is the share of the control response that was lost under treatment. High values mean a strong effect, low ones a weak effect. Consider `O=c1[nH]c2c(c3ccccc13)C(O)c1ccccc1-2` (racemic) [Compound 3a, (±) 11-hydroxy-5,6-dihydro-5-oxo-11H-indeno[1,2-c]isoquinoline], for which, on PARS [1], the inhibition at 0.1 µM worked out at 8% and the inhibition at 1 µM was 67%.

On PARS [1], `CC1(O)c2ccccc2-c2[nH]c(=O)c3ccccc3c21` (racemic) [Compound 3b, (±) 11-hydroxy-11-methyl-5,6-dihydro-5-oxo-11H-indeno[1,2-c]isoquinoline] yielded an inhibition at 0.3 µM of 0% and an inhibition at 1 µM of 25%.

At PARS [1], `COc1cccc(C2(O)c3ccccc3-c3[nH]c(=O)c4ccccc4c32)c1` (racemic) [Compound 3c, (±) 11-hydroxy-11-(m-methoxyphenyl)-5,6-dihydro-5-oxo-11H-indeno[1,2-c]isoquinoline] returned an inhibition at 0.3 µM of 9% and an inhibition at 1 µM of 21%.

`O=c1[nH]c2c(c3ccccc13)C(Br)c1ccccc1-2` (racemic) [Compound 4b, (±) 11-bromo-5,6-dihydro-5-oxo-11H-indeno[1,2-c]isoquinoline]: on PARS [1], testing at 0.1 µM gave an inhibition of 51% and the inhibition at 1 µM came out at 88%.

With `CN(C)C1c2ccccc2-c2[nH]c(=O)c3ccccc3c21` (racemic) [Compound 5a, (±) 11-N,N-dimethylamino-5,6-dihydro-5-oxo-11H-indeno[1,2-c]isoquinoline], on PARS [1], the “% PARS inhibition at 100 nM” value stood at 10% and the “% PARS inhibition at 1 μM” value stood at 55%.

Take `CCN(CC)C1c2ccccc2-c2[nH]c(=O)c3ccccc3c21` (racemic) [Compound 5b, (±) 11diethylamino-5,6-dihydro-5-oxo-11H-indeno[1,2-c]isoquinoline]: on PARS [1], the inhibition at 0.1 µM was determined as 0% and the inhibition at 1 µM is 33%.

For the molecule `CN1CCN(C2c3ccccc3-c3[nH]c(=O)c4ccccc4c32)CC1` (racemic) [Compound 5c, (±) 11-(N-methylpiperazin)-5,6-dihydro-5-oxo-11H-indeno[1,2-c]isoquinoline], on PARS [1], the “% PARS inhibition at 100 nM” value turned out to be 0% and the “% PARS inhibition at 1 μM” value came out at 24%.

At PARS [1], `O=c1[nH]c2c(c3ccccc13)C(N1CCOCC1)c1ccccc1-2` (racemic) [Compound 5e, (±) 11-morpholino-5,6-dihydro-5-oxo-11H-indeno[1,2-c]isoquinoline] gave an inhibition at 0.1 µM of 0% and an inhibition at 1 µM of 21%.

On to `O=C1c2ccccc2-c2[nH]c(=O)c3ccccc3c21` [Compound 2, 5,6-dihydro-5,11-diketo-11H-indeno[1,2-c]isoquinoline], for which, on PARS [1], the inhibition at 0.1 µM amounted to 16% and the inhibition at 1 µM turned out to be 60%.

With `O=c1[nH]c2c(c3ccccc13)C(N1CCCCC1)c1ccccc1-2` (stereo not shown) [Compound 5d, 11-(piperidin)-5,6-dihydro-5-oxo-11H-indeno[1,2-c]isoquinoline], on PARS [1], the “% PARS inhibition at 100 nM” value is listed as 0% and the “% PARS inhibition at 1 μM” value turned out to be 48%.

As to `O=c1[nH]c2c(c3ccccc13)Cc1ccccc1-2` [Compound 6, 5,6-dihydro-5-oxo-11H-indeno[1,2-c]isoquinoline], on PARS [1], the inhibition at 0.1 µM was 30% and at 1 µM the inhibition was 65%.

At PARS [1], `O=c1[nH]c2c(c3ccccc13)Cc1cc(S(=O)(=O)Cl)ccc1-2` [Compound 7, 9-chlorosulfonyl-5,6-dihydro-5-oxo-11H-indeno[1,2-c]isoquinoline] yielded an inhibition at 0.1 µM of 0% and an inhibition at 1 µM of 50%.

`CN1CCN(S(=O)(=O)c2ccc3c(c2)Cc2c-3[nH]c(=O)c3ccccc23)CC1` [Compound 8a, 9-[N-(4-methylpiperazine-1-yl)sulphonyl]-5,6-dihydro-5-oxo-11H-indeno-[1,2-c]isoquinoline]: the “% PARS inhibition at 300 nM” value on PARS [1] was found to be 47%.

In the case of `O=c1[nH]c2c(c3ccccc13)Cc1cc(S(=O)(=O)N3CCN(CCO)CC3)ccc1-2` [Compound 8c, 9-[N-4-(2-hydroxyethylpiperazino-1-yl)-sulphonyl]-5,6-dihydro-5-oxo-1H-indeno-[1,2-c]isoquinoline], the “% PARS inhibition at 300 nM” value at PARS [1] came out at 27%.

Take `O=c1[nH]c2c(c3ccccc13)Cc1cc(S(=O)(=O)n3ccnc3)ccc1-2` [Compound 8d, 9-[N-(imidazolo-1-yl)sulphonyl]-5,6-dihydro-5-oxo-11H-isoquinoline]: on PARS [1], the “% PARS inhibition at 100 nM” value was 77% and the “% PARS inhibition at 300 nM” value was 82%.

On to `O=c1[nH]c2c(c3ccccc13)Cc1cc(S(=O)(=O)N3CCCC3CO)ccc1-2` (stereo not shown) [Compound 8e, 9-[N-(2-hydroxyprolinyl)sulphonyl]-5,6-dihydro-5-oxo-11H-indeno[1,2-c]isoquinoline], for which, at PARS [1], the “% PARS inhibition at 300 nM” value was found to be 68%.

Turning to `CN(C)CCNS(=O)(=O)c1ccc2c(c1)Cc1c-2[nH]c(=O)c2ccccc12` [Compound 8g, 9-[N-(2-[N,N-dimethylamino]ethyl)aminosulphonyl]-5,6-dihydro-5-oxo-11H-indeno[1,2-c]isoquinoline], at PARS [1], 0.1 µM produced 34% inhibition and the inhibition at 0.3 µM came out at 55%.

`O=c1[nH]c2c(c3ccccc13)Cc1cc(S(=O)(=O)NCCN3CCCCC3)ccc1-2` [Compound 8h, 9-[N-(2-[piperidino-1-yl]ethyl)-aminosulphonyl]-5,6-dihydro-5-oxo-11H-indeno[1,2-c]isoquinoline]: on PARS [1], the “% PARS inhibition at 100 nM” value was 56% and the “% PARS inhibition at 300 nM” value was 76%.

Consider `O=c1[nH]c2c(c3ccccc13)Cc1cc(S(=O)(=O)NCCCN3CCCC3)ccc1-2` [Compound 8m, 9-[N-(3-[tetrahydropyrrolodino-1-yl]propyl)aminosulphonyl]-5,6-dihydro-5-oxo-11H-indeno-[1,2-c]isoquinoline], for which the “% PARS inhibition at 300 nM” value on PARS [1] came out at 50%.

Consider `CN1CCN(CCCNS(=O)(=O)c2ccc3c(c2)Cc2c-3[nH]c(=O)c3ccccc23)CC1` [Compound 8o, 9-[N-[3-(4-methylpiperazino-1-yl]propyl)-aminosulphonyl]-5,6-dihydro-5-oxo-11H-indeno-[1,2c]isoquinoline], for which, on PARS [1], the “% PARS inhibition at 100 nM” value was 48% and the “% PARS inhibition at 300 nM” value is recorded as 55%.

For the molecule `CN(C)CCN(CCN(C)C)S(=O)(=O)c1ccc2c(c1)Cc1c-2[nH]c(=O)c2ccccc12` [Compound 8q, 9-[N,N di-(2-[N,N dimethylamino]ethyl)aminosulphonyl]-5,6-dihydro-5-oxo-11H-indeno-[1,2-c]isoquinoline], at PARS [1], the “% PARS inhibition at 100 nM” value came to 20% and the “% PARS inhibition at 300 nM” value is on record as 28%.

Consider `O=c1[nH]c2c(c3ccccc13)Cc1cc(S(=O)(=O)N(CCN(CCO)CCO)CCN(CCO)CCO)ccc1-2` [Compound 8r, 9-[N,N-di(2[N,N-dihydroxyethylamino]ethyl)-aminosulphonyl]-5,6-dihydro-5-oxo-11H-indeno-[1,2c]isoquinoline], for which, on PARS [1], the “% PARS inhibition at 100 nM” value is 20% and the “% PARS inhibition at 300 nM” value is on record as 28%.

With `COc1ccc2oc3c4ccccc4c(=O)[nH]c3c2c1` [Compound 22a], at PARS [1], the “% PARS inhibition at 100 nM” value came out at 51% and the “% PARS inhibition at 1 μM” value came to 81%.

On PARS [1], `O=c1[nH]c2c3cc(O)ccc3oc2c2ccccc12` [Compound 23a, 8-Hydroxy-6H-11-oxa-6-aza-benzo[a]fluoren-5-one] displayed an inhibition at 0.1 µM of 34%, an inhibition at 0.3 µM of 79% and an inhibition at 1 µM of 84%.

In the case of `O=c1[nH]c2c3ccc(O)cc3oc2c2ccccc12` [Compound 23b], on PARS [1], 0.1 µM produced 53% inhibition, the inhibition at 0.3 µM amounted to 57% and at 1 µM the inhibition was 58%.

Molecule `O=c1[nH]c2c3ccccc3[nH]c2c2ccccc12` [Compound 31, 6H,11H-Indolo[3,2-c]Isoquinoline-5-one] yielded an inhibition at 0.1 µM at PARS [1] of 18%.

With `NS(=O)(=O)c1ccc2c3[nH]c(=O)c4ccccc4c3n(S(N)(=O)=O)c2c1` [Compound 35a, 6H,11H-Indolo[3,2-c]Isoquinoline-5-one-9,11-disulfonamide], on PARS [1], the inhibition at 0.1 µM was found to be 14% and 1 µM produced 75% inhibition.

For orientation: EC50 means the midpoint of the concentration-response curve. Lower therefore signals greater potency. On PARS [2], `Oc1nc2c(c3ccccc13)Cc1ccc(F)cc1-2` [Compound 99] displayed an EC50 of 225 nM.

`O=c1[nH]c2c(c3ccccc13)Cc1cc(F)ccc1-2` [Compound 100] had a half-maximal effective concentration (EC50) on PARS [2] of 180 nM.

In turn, `Nc1ccc2c(c1)Cc1c-2[nH]c(=O)c2ccccc12` [Compound 102, 5,6-Dihydro-5-oxo-9-amino-indeno[1,2-c]isoquinoline] showed a 50% effective concentration (EC50) on PARS [2] of 95 nM.

The molecule `O=C(CO)Nc1ccc2c(c1)Cc1c-2[nH]c(=O)c2ccccc12` [Compound 104] displayed a concentration for a half-maximal effect (EC50) at PARS [2] of 65 nM.

Turning to `CCCNC(=O)Nc1ccc2c(c1)Cc1c-2[nH]c(=O)c2ccccc12` [Compound 105], on PARS [2], a half-maximal effect (EC50) was put at 80 nM.

Turning to `O=S(=O)(NCCCN1CCOCC1)c1cc2c(cc1F)-c1nc(O)c3ccccc3c1C2` [Compound 107], at PARS [2], the EC50 was 10 nM.

With `O=S(=O)(O)c1ccc2c(c1)Cc1c-2nc(O)c2ccccc12` [Compound 110], the EC50 on PARS [2] came out at 625 nM.
